{"source": "patent US6699879B1", "about": "“Phenyl urea and phenyl thiourea derivatives as orexin receptor antagonists” (SmithKline Beecham p.l.c., priority 1999, dated 2004)", "key": {"[1]": {"tested_on": "orexin receptors", "assay": "Rat sleep/EEG studies, central administration", "format": "in vivo", "settings": "central administration at the onset of the normal sleep period; largely at the expense of paradoxical sleep and slow wave sleep 2", "excerpt": "Therefore antagonists of its receptor may be useful in the treatment of sleep disorders including insomnia."}, "[2]": {"tested_on": "freely-feeding rats", "settings": "central administration, 4 hour time period; cited from earlier work"}}, "note": "No end group written: not given here.", "data": [{"substance": "orexin-A: ligand for the orexin-1 receptor, an agonist of the orexin receptors; 33-residue peptide, sequence in the 1st table (QPLPDCCRQKTCSCRLYELLHGAGNHAAGILTL-NH2; not fully specified (residue 1, bridges); ends and bridges not checked; UniProt O43612 34-66, looked up)", "values": [{"measurement": "effect on arousal", "setting": "[1]", "result": "dose-related increase in arousal"}, {"measurement": "increase in food intake over control rats receiving vehicle", "setting": "[2]", "result": "approximately four-fold"}]}]}
